Source: patent publication US9884048B2, “ERK inhibitors” (Merck Sharp & Dohme Corp., priority 2014, dated 2018)

target: phosphorylated active hERK2 enzyme (Homo sapiens (Human), UniProt P28482); settings: read-out: ERK2 IC50; IMAP-FP assay; 0.5 nM hERK2, 30 μM ATP; 10 point titration, 3 μM starting concentration
Sequence (P28482 whole entry): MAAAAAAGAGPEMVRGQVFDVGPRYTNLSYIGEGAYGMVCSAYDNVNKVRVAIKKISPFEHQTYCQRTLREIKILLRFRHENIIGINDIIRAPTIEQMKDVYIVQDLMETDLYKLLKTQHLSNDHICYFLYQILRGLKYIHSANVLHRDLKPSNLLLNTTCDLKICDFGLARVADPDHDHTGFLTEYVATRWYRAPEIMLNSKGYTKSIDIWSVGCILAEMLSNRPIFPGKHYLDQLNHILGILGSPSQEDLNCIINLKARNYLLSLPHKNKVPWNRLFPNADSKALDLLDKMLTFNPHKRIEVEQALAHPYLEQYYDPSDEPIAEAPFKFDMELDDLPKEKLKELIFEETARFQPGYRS

| SMILES | IC50 [nM] |
| --- | --- |
| Cc1cc(-n2ncc3cc(NC(=O)N[C@H]4CN(C)C[C@@H]4CCc4ccccc4)ncc32)ccn1 [Example 185, 1-[(3R,4S)-1-methyl-4-(2-phenylethyl)pyrrolidin-3-yl]-3-[1-(2-methylpyridin-4-yl)-1H-pyrazolo[3,4-c]pyridin-5-yl]urea] | 0.182 |
| Cc1cc(-n2ncc3cc(NC(=O)N[C@@H](CN)c4ccccc4)ncc32)ccn1 [Example 186, 1-[(1R)-2-amino-1-phenylethyl]-3-[1-(2-methylpyridin-4-yl)-1H-pyrazolo[3,4-c]pyridin-5-yl]urea] | 42.5 |
| Cc1cc(-n2ncc3cc(NC(=O)N[C@H](CN)c4ccccc4)ncc32)ccn1 [Example 187, 1-[(1S)-2-amino-1-phenylethyl]-3-[1-(2-methylpyridin-4-yl)-1H-pyrazolo[3,4-c]pyridin-5-yl]urea] | 0.685 |
| Cc1cc(-n2ncc3cc(NC(=O)N[C@@H]4CN(C)C[C@H]4c4ccc(C)s4)ncc32)ccn1 [Example 188, 1-[(3S,4R)-1-methyl-4-(5-methylthiophen-2-yl)pyrrolidin-3-yl]-3-[1-(2-methylpyridin-4-yl)-1H-pyrazolo[3,4-c]pyridin-5-yl]urea] | 70.1 |
| Cc1cc(-n2ncc3cc(NC(=O)N[C@H]4CN(C)C[C@@H]4c4ccc(C)s4)ncc32)ccn1 [Example 189, 1-[(3R,4S)-1-methyl-4-(5-methylthiophen-2-yl)pyrrolidin-3-yl]-3-[1-(2-methylpyridin-4-yl)-1H-pyrazolo[3,4-c]pyridin-5-yl]urea] | 0.254 |
| Cc1cc(-n2ncc3cc(NC(=O)N[C@@H]4CN(C)C[C@H]4c4ccccc4C)ncc32)ccn1 [Example 190, 1-[(3S,4R)-1-methyl-4-(2-methylphenyl)pyrrolidin-3-yl]-3-[1-(2-methylpyridin-4-yl)-1H-pyrazolo[3,4-c]pyridin-5-yl]urea] | 11.7 |
| Cc1cc(-n2ncc3cc(NC(=O)N[C@H]4CN(C)C[C@@H]4c4ccccc4C(F)(F)F)ncc32)ccn1 [Example 191, 1-[1-(2-methylpyridin-4-yl)-1H-pyrazolo[3,4-c]pyridin-5-yl]-3-{(3R,4S)-1-methyl-4-[2-(trifluoromethyl)-phenyl]pyrrolidin-3-yl}urea] | 0.509 |
| Cc1cc(-n2ncc3cc(NC(=O)N[C@@H]4CN(C)C[C@H]4c4ccccc4C(F)(F)F)ncc32)ccn1 [Example 192, 1-[1-(2-methylpyridin-4-yl)-1H-pyrazolo[3,4-c]pyridin-5-yl]-3-{(3S,4R)-1-methyl-4-[2-(trifluoromethyl)-phenyl]pyrrolidin-3-yl}urea] | 235 |
| CO[C@H]1CN(C)C[C@@H]1NC(=O)Nc1cc2cnn(-c3ccnc(C)c3)c2cn1 [Example 193, 1-[(3S,4S)-4-methoxy-1-methylpyrrolidin-3-yl]-3-[1-(2-methylpyridin-4-yl)-1H-pyrazolo[3,4-c]pyridin-5-yl]urea] | 2530 |
| CO[C@@H]1CN(C)C[C@H]1NC(=O)Nc1cc2cnn(-c3ccnc(C)c3)c2cn1 [Example 194, 1-[(3R,4R)-4-methoxy-1-methylpyrrolidin-3-yl]-3-[1-(2-methylpyridin-4-yl)-1H-pyrazolo[3,4-c]pyridin-5-yl]urea] | 47.7 |
| Cc1cc(-n2ncc3cc(NC(=O)N[C@H]4CN(C5CCC5)C[C@@H]4c4ccccc4)ncc32)ccn1 [Example 195, 1-[(3R,4S)-1-cyclobutyl-4-phenylpyrrolidin-3-yl]-3-[1-(2-methylpyridin-4-yl)-1H-pyrazolo[3,4-c]pyridin-5-yl]urea] | 3.6 |
| Cc1cc(-n2ncc3cc(NC(=O)N[C@@H]4CN(C5CCC5)C[C@H]4c4ccccc4)ncc32)ccn1 [Example 196, 1-[(3S,4R)-1-cyclobutyl-4-phenylpyrrolidin-3-yl]-3-[1-(2-methylpyridin-4-yl)-1H-pyrazolo[3,4-c]pyridin-5-yl]urea] | 354 |
| Cc1cc(-n2ncc3cc(NC(=O)N[C@@H]4CN(C(C)C)C[C@H]4c4ccccc4)ncc32)ccn1 [Example 197, 1-[(3S,4R)-1-(1-methyl-ethyl)-4-phenylpyrrolidin-3-yl]-3-[1-(2-methylpyridin-4-yl)-1H-pyrazolo[3,4-c]-pyridin-5-yl]urea] | 60.8 |
| Cc1cc(-n2ncc3cc(NC(=O)N[C@H]4CN(C(C)C)C[C@@H]4c4ccccc4)ncc32)ccn1 [Example 198, 1-[(3R,4S)-1-(1-methylethyl)-4-phenylpyrrolidin-3-yl]-3-[1-(2-methylpyridin-4-yl)-1H-pyrazolo[3,4-c]pyridin-5-yl]urea] | 2.64 |
| CCN1C[C@H](NC(=O)Nc2cc3cnn(-c4ccnc(C)c4)c3cn2)[C@@H](c2ccccc2)C1 [Example 199, 1-[(3R,4S)-1-ethyl-4-phenylpyrrolidin-3-yl]-3-[1-(2-methylpyridin-4-yl)-1H-pyrazolo[3,4-c]pyridin-5-yl]urea] | 0.718 |
| CCN1C[C@@H](NC(=O)Nc2cc3cnn(-c4ccnc(C)c4)c3cn2)[C@H](c2ccccc2)C1 [Example 200, 1-[(3S,4R)-1-ethyl-4-phenylpyrrolidin-3-yl]-3-[1-(2-methylpyridin-4-yl)-1H-pyrazolo[3,4-c]pyridin-5-yl]urea] | 20.6 |
| Cc1cc(-n2ncc3cc(NC(=O)N[C@@H]4CN(C)C5(COC5)[C@H]4c4ccccc4)ncc32)ccn1 [Example 201, 1-[(7S,8S)-5-methyl-8-phenyl-2-oxa-5-azaspiro[3.4]oct-7-yl]-3-[1-(2-methylpyridin-4-yl)-1H-pyrazolo[3,4-c]pyridin-5-yl]urea] | 0.689 |
| Cc1cc(-n2ncc3cc(NC(=O)N[C@H]4CN(C)C5(COC5)[C@@H]4c4ccccc4)ncc32)ccn1 [Example 202, 1-[(7R,8R)-5-methyl-8-phenyl-2-oxa-5-azaspiro[3.4]oct-7-yl]-3-[1-(2-methylpyridin-4-yl)-1H-pyrazolo[3,4-c]pyridin-5-yl]urea] | 300 |
| Cc1cc(-n2ncc3cc(NC(=O)N[C@@H](C)c4ccccn4)ncc32)ccn1 [Example 203, 1-[1-(2-methylpyridin-4-yl)-1H-pyrazolo[3,4-c]pyridin-5-yl]-3-[(1S)-1-pyridin-2-ylethyl]urea] | 1180 |
| Cc1cc(-n2ncc3cc(NC(=O)N[C@H](C)c4ccccn4)ncc32)ccn1 [Example 204, 1-[1-(2-methylpyridin-4-yl)-1H-pyrazolo[3,4-c]pyridin-5-yl]-3-[(1R)-1-pyridin-2-ylethyl]urea] | 7.84 |
| C[C@@H](NC(=O)Nc1cc2cnn(-c3cnn(C)c3)c2cn1)c1ccc(F)c(Cl)c1 [Example 205, (R)-1-(1-(3-chloro-4-fluorophenyl)ethyl)-3-(1-(1-methyl-1H-pyrazol-4-yl)-1H-pyrazolo[3,4-c]pyridin-5-yl)urea] | 12.1 |
| Cn1ncc2ccc(-n3ncc4cc(NC(=O)N[C@@H](c5ccccc5)C(C)(C)O)ncc43)cc21 [Example 206, 1-[(1S)-2-hydroxy-2-methyl-1-phenylpropyl]-3-[1-(1-methyl-1H-indazol-6-yl)-1H-pyrazolo[3,4-c]pyridin-5-yl]urea] | 0.99 |
| Cn1cc2cc(-n3ncc4cc(NC(=O)N[C@@H](c5ccccc5)C(C)(C)O)ncc43)ccc2n1 [Example 207, 1-[(1S)-2-hydroxy-2-methyl-1-phenylpropyl]-3[-1-(2-methyl-2H-indazol-5-yl)-1H-pyrazolo[3,4-c]pyridin-5-yl]urea] | 0.33 |
| CN1C[C@H](NC(=O)Nc2cc3cnn(-c4ccc(F)cc4)c3cn2)[C@@H](c2ccccc2)C1 [Example 208, 1-[1-(4-fluorophenyl)-1H-pyrazolo[3,4-c]pyridin-5-yl]-3-[(3R,4S)-1-methyl-4-phenylpyrrolidin-3-yl]urea] | 0.579 |
